In patent US5798359A, “Piperazino derivatives as neurokinin antagonists” (Schering Corporation, priority 1995, dated 1998):
pKi: −log10 of the molar value.

Key:
[1] = target: T1, human neurokinin 1 (NK1) receptor (Homo sapiens, UniProt P25103); assay: Neurokinin NK1 receptor binding assay ([3H]-Substance P, CHO cell membranes); conditions: for pKi: [3H]-Substance P 0.8 nM, Cheng and Prusoff
T1 construct: expressed in transfected cells; host or cells: Chinese hamster ovary (CHO) cells, G418 medium; membranes
T1 sequence (P25103 whole entry): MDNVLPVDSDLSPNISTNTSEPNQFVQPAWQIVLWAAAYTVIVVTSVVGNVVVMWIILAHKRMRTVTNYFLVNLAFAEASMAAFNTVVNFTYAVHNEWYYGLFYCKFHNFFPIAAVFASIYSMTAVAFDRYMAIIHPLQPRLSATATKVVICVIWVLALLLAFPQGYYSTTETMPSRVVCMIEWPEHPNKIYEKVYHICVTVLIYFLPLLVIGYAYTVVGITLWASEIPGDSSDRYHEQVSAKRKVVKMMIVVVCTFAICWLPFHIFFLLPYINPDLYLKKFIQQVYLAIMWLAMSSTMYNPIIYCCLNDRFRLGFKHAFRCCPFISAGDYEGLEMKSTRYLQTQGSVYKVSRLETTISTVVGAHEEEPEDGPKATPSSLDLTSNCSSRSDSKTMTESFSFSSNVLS
Method: (§1) Chinese Hamster ovary (CHO) cells transfected with the coding regions for the human neurokinin 1 (NK1) of the human neurokinin 2 (NK2) receptors are grown in Dulbecco's minimal essential medium supplemented with 10% fetal calf serum, 0.1 mM non-essential amino acids, 2 mM glutamine, 100 units/ml of penicillin and streptomycin, and 0.8 mg of G418/ml at 37° C. in a humidified atmosphere containing 5% CO2.
(§2) Cells are detached from T-175 flasks with a sterile solution containing 5 mM EDTA in phosphate buffered saline. Cells are harvested by centrifugation and washed in RPMI media at […] for 5 minutes. The pellet is resuspended in Tris-HCl (pH7.4) containing 1 uM phsphoramidon and 4 ug/ml of chymostatin at a cell density of 30×10^6 cells/ml. The suspension is then homogenized in a Brinkman Polytron (setting 5) for 30-45 seconds. The homogenate is centrifuged at 800×g for 5 min at […] to collect unbroken cells and nuclei. The supernatant is centrifuged in a Sorvall RC5C at 19,000 rpm ([…]) for 30 min at 4° C. The pellet is resuspended, an aliquot is removed for a protein determination (BCA) and washed again. The resulting pellet is stored at -80° C.
(§3) Binding is initiated by the addition of 100 μl of membrane (10-20 μg) containing the human NK-1 or NK-2 receptor in a final volume of 200 μl. After 40 minutes at room temperature, the reaction is stopped by rapid filtration onto Whatman GF/C filters which have been presoaked in 0.3% polyethylenimine. Filters are washed 2 times with 3 ml of 50 mM Tris-HCl (pH7.4). Filters are added to 6 mls of Ready-Safe liquid scintillation cocktail and quantified by liquid scintillation spectrometry in a LKB 1219 RackBeta counter. Non-specific binding is determined by the addition of either 1 μM of CP-99994 (NK1) or 1 μM SR-48968 (NK2) (both synthesized by the chemistry department of Schering-Plough Research Institute).

[2] = target: T2, human neurokinin 2 (NK2) receptor (Homo sapiens, UniProt P21452); assay: Neurokinin NK2 receptor binding assay ([3H]-Neurokinin A, CHO cell membranes); conditions: for inhibition at 1 µM: 1 μM concentration
T2 construct: expressed in transfected cells; host or cells: Chinese hamster ovary (CHO) cells, G418 medium; membranes
T2 sequence (P21452 1-398): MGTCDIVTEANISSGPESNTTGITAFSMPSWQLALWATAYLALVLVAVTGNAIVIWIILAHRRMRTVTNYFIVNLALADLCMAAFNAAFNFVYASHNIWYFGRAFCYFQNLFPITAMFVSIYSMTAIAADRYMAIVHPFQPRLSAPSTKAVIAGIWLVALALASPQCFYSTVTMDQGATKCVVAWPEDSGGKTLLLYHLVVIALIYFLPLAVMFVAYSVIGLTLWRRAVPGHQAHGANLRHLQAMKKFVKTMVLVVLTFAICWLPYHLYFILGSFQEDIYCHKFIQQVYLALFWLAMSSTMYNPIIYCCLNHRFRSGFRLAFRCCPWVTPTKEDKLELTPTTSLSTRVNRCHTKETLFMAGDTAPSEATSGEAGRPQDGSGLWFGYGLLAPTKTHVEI
Method: as §1, §2, §3

Row | pKi [1] | pKi ([2]; [3H]-Neurokinin A 1.0 nM, Cheng and Prusoff) | inhibition at 1 µM [2] [%] | inhibition at 1 µM ([1]; 1 μM concentration) [%] | SMILES
1 | 7.52 | 6.76 |  |  | O=C(CNC1CCN(Cc2ccccc2)CC1)N1CCN(Cc2cccc(C(F)(F)F)c2)CC1c1ccc(Cl)c(Cl)c1 (stereo not drawn)
2 | 6.87 |  | 24 |  | COC1(C[S+]([O-])c2ccccc2)CCN(CC(=O)N2CCN(Cc3cc(C(F)(F)F)cc(C(F)(F)F)c3)CC2c2ccc(Cl)c(Cl)c2)CC1 (stereo not drawn)
3 |  |  | 0 | 48 | Cc1cccc(C)c1N1CCN(CC(=O)N2CCN(Cc3cc(C(F)(F)F)cc(C(F)(F)F)c3)CC2c2ccccc2)CC1 (stereo not drawn)
